# Laboratory results reported in paper PMC8252068, “Biochemical Investigation of the Interaction of pICln, RioK1 and COPR5 with the PRMT5–MEP50 Complex” (Chembiochem, 2021).
# Where a SMILES comes first, the peptide text is derived from it. Side-chain parts run from the residue outwards. The star is where a group is joined. FITC = O=C1OC2(c3ccc(O)cc3Oc3cc(O)ccc32)c2ccc(NC(=S)*)cc21; AEEA = NCCOCCOCC(=O)O
# Molecular target: T1, native PRMT5–MEP50 complex (Homo sapiens, UniProt O14744+Q9BQA1)
# T1 construct: Full‐length PRMT5–MEP50; 6His-MBP with 3C site (N, cleaved yes); made in house; host or cells: HighFive insect cells (flashBAC baculovirus system)
# Assay: Competitive fluorescence polarisation binding assay with compound 11 as tracer
# Conditions: competitive FP; tracer compound 11 at 1 nM, PRMT5-MEP50 600 nM, unlabelled peptide titrated two-fold; pH 8.0; 30 min, 20-21 °C; n=3
# Source text: (§1) All proteins were expressed at the Protein Chemistry Facility (PCF) based in the MPI Dortmund.
# (§2) For expression of the proteins, all constructs were subcloned into pOPIN vectors. […]
# (§3) Expression of full-length human RioK1 tagged with 6NHis-3C and co-expression of full-length human PRMT5 (N-terminal 6His-MBP with 3C) with MEP50 (N-terminal 6His-TRX with 3C), and of TIM barrel (1-292 aa) with MEP50 (both N-terminally tagged with His-TRX with 3C cleavage site) was done using the Flash Bac Expression System (Oxford Expression Technologies, UK) with HighFive insect cells in Gibco Sf-900 III SFM medium. The cells were harvested by centrifugation and lysed.
# (§4) All proteins were purified at the PCF (MPI Dortmund).
# (§5) Protein purification was performed on HisTrap FF crude 5 ml Ni-based column, followed by the on-column treatment with 6His-tagged HRV-3C PreScission protease, or in case of the SUMO-tagged TIM barrel, with 6His-tagged SUMO protease. The cleaved proteins were then further purified using gel filtration chromatography with the HiLoad 26/60 Superdex 75 or 200 prep grade column. PRMT5 -MEP50, TIM-MEP50 and TIM barrel were stored in a buffer containing 50 mM HEPES, 250 mM NaCl, 1 mM TCEP with the pH adjusted to 8.0, whereas, pICln was stored in a buffer of 20 mM phosphate, 100 mM NaCl, 5 mM TCEP and pH of 7.5, whereas RioK1 was stored in a buffer of 50 mM Tris, 200 mM NaCl, 10% glycerol, 1 […]
# (§6) Protein Labelling with Alexa 488
# (§7) To a protein solution (ca. 1 mg/ml) in 0.2 M bicarbonate buffer with 1 mM TCEP at pH 8.3, was added 10 mM Alexa 488 NHS-ester in DMSO (8 equiv), and the mixture was kept on ice, in darkness, overnight. The protein was washed eight times with buffer (50 mM HEPES, 250 mM NaCl, 1 mM TCEP, 8.0 pH) using an Amicon® Ultra-0.5 mL spin filter. Protein concentration was then determined using the NanoDrop […]
# Competitive Binding Assay
# The competitive binding assay was performed in a buffer of 50 mM HEPES, 250 mM NaCl, 1 mM TCEP, 0.01% (v/v) Tween 20, 8.0 pH, in black, 384 well-plates, with a total volume of 10 μl per well. The FITC labelled peptides were added at the final concentration of 1 nM, were mixed with PRMT5-MEP50 (at the final concentration of 600 nM), and the appropriate non-labelled peptide was titrated as two-fold dilution series. The plates were incubated at 20-21 °C for 30 min and analysed on a plate reader using 485 nm excitation and 535 nm emission wavelength. The experiment was performed in triplicates.
# T1 sequence (O14744 whole entry): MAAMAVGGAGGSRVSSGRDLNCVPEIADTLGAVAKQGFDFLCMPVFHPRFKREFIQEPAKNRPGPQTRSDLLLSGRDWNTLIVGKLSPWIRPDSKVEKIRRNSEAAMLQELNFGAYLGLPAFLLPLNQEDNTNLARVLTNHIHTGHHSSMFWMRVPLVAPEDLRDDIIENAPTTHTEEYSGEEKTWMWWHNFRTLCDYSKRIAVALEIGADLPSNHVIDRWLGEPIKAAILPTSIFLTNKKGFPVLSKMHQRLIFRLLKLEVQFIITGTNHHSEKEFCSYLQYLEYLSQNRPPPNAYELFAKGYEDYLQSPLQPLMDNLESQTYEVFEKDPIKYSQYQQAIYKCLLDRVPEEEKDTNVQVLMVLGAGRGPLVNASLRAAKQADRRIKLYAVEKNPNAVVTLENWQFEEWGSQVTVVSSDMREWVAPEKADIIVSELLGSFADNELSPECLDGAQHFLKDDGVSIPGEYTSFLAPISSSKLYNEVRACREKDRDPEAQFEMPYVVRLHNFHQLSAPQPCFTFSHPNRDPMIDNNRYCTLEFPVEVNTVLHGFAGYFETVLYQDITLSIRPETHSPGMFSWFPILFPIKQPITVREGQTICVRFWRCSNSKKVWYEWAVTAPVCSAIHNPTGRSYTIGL
# T1 sequence (Q9BQA1 whole entry partner): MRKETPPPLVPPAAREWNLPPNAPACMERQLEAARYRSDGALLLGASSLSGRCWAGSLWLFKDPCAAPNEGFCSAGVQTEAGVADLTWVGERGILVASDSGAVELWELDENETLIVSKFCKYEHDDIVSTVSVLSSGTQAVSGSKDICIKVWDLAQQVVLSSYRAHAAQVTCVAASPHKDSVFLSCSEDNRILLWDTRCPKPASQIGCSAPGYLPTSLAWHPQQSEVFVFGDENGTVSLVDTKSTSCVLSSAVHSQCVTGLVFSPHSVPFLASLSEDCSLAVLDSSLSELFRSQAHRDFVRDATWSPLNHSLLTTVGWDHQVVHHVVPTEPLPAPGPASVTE
row,Molecule,IC50
1,Ac-TPTVAGQFEDAD-NH2 [compound 24],14.6 ± 0.9 µM
2,Ac-MVFETGQFDDAED-NH2 [compound 25],3.4 ± 0.2 µM
3,Ac-SRAVPGQFDDAD-NH2 [compound 35],4.8 ± 0.7 µM
4,Ac-SRVAPGQFDDAD-NH2 [compound 34],14 ± 3.4 µM
5,Ac-SRVVPGQFADAD-NH2 [compound 29],6.4 ± 0.3 µM
6,Ac-SRVVPAQFDDAD-NH2 [compound 32],39 ± 8.5 µM
7,Ac-SRVVPGQADDAD-NH2 [compound 30],> 300 µM
8,Ac-SRVVAGQFDDAD-NH2 [compound 33],9.9 ± 2.2 µM
9,Ac-SRVVPGAFDDAD-NH2 [compound 31],> 300 µM
10,Ac-SAVVPGQFDDAD-NH2 [compound 36],2.8 ± 0.5 µM
11,Ac-SRVVPGQFDDADSSD-NH2 [compound 23],1.5 ± 0.4 µM
12,Ac-SRVVPGQFDAAD-NH2 [compound 28],97 ± 17 µM
13,Ac-SRVVPGQFDDAA-NH2 [compound 27],6.2 ± 2.2 µM
14,Ac-ARVVPGQFDDAD-NH2 [compound 37],0.9 ± 0.2 µM
15,Ac-SRVVPGQFDDAD-NH2 [compound 26],6 ± 0.7 µM

# Molecular target: T1, native PRMT5–MEP50 complex
# Assay: Fluorescence polarisation direct binding assay, full-length PRMT5–MEP50
# Conditions: FP using the native PRMT5–MEP50 complex; FITC peptide 1 nM; pH 8.0; 30 min, 20-21 °C; n=3; n.b. = no binding
# Source text: as §1, §2, §3, §4, §5, §6, §7
# Fluorescence Polarisation (FP)
# The assay was performed in a buffer of 50 mM HEPES, 250 mM NaCl, 1 mM TCEP, 0.01% (v/v) Tween 20, pH 8.0, in black, 384 well-plates, with a total volume of 10 μl per well. The analysed, FITC labelled peptides, or Alexa488-labelled pICln or RioK1, were tested at a final concentration of 1 nM, and the appropriate unlabelled protein was titrated as two-fold dilution series. The plates were incubated at 20-21 °C for 30 min in case of FITC -labelled peptides or 1-2h in case of the Alexa488-labelled protein, and analysed on a plate reader using 485 nm excitation and 535 nm emission wavelength. The assay was performed in […]
row,Molecule,"K D (Table 2, peptides 1–16)"
1,"Ac‐FDDADK(O2Oc‐Fitc)‐NH2 [compound 10, N-terminally truncated, C-terminally labelled RioK1 derived peptide]",n.b.
2,"Fitc‐O2Oc‐SRVVPGQF‐NH2 [compound 6, C-terminally truncated RioK1 derived Fitc-labelled peptide]",n.b.
3,"Fitc‐O2Oc‐TPTVAGQF‐NH2 [compound 14, C-terminally truncated pICln derived Fitc-labelled peptide]",n.b.

# Same assay, conditions: FP using the native PRMT5–MEP50 complex; FITC peptide 1 nM; pH 8.0; 30 min, 20-21 °C; n=3; n.b. = no binding; read-out: K D (Table 2, peptides 1–16)
row,Molecule,Kd
1,CC(C)[C@H](NC(=O)COCCOCCNC(=S)Nc1ccc2c(c1)C(=O)OC21c2ccc(O)cc2Oc2cc(O)ccc21)C(=O)N[C@@H](CC(=O)O)C(=O)N[C@H](C(=O)N[C@H](C(=O)N1CCC[C@H]1C(=O)N[C@H](C(=O)N[C@H](C(=O)N[C@@H](C)C(=O)NCC(=O)N[C@@H](CCC(N)=O)C(=O)N[C@@H](Cc1ccccc1)C(=O)N[C@@H](CCC(=O)O)C(=O)N[C@@H](CC(=O)O)C(=O)N[C@@H](C)C(=O)N[C@@H](CC(=O)O)C(N)=O)C(C)C)[C@@H](C)O)[C@@H](C)O)[C@@H](C)O [compound 16] ({FITC-AEEA}-VDTTPTVAGQFEDAD-NH2),2.38 ± 0.817 µM
2,CC(C)[C@H](NC(=O)[C@H](CCCNC(=N)N)NC(=O)[C@H](CO)NC(=O)COCCOCCNC(=S)Nc1ccc2c(c1)C(=O)OC21c2ccc(O)cc2Oc2cc(O)ccc21)C(=O)N[C@H](C(=O)N1CCC[C@H]1C(=O)NCC(=O)N[C@@H](CCC(N)=O)C(=O)N[C@@H](Cc1ccccc1)C(=O)N[C@@H](CC(=O)O)C(=O)N[C@@H](CC(=O)O)C(=O)N[C@@H](C)C(=O)N[C@@H](CC(=O)O)C(=O)N[C@@H](CO)C(=O)N[C@@H](CO)C(=O)N[C@@H](CC(=O)O)C(N)=O)C(C)C [compound 11] ({FITC-AEEA}-SRVVPGQFDDADSSD-NH2),0.295 ± 0.011 µM
3,CSCC[C@H](NC(=O)[C@H](CC(C)C)NC(=O)[C@H](CC(C)C)NC(=O)COCCOCCNC(=S)Nc1ccc2c(c1)C(=O)OC21c2ccc(O)cc2Oc2cc(O)ccc21)C(=O)N[C@@H](CO)C(=O)N[C@@H](CCCNC(=N)N)C(=O)N[C@H](C(=O)N[C@H](C(=O)N1CCC[C@H]1C(=O)NCC(=O)N[C@@H](CCC(N)=O)C(=O)N[C@@H](Cc1ccccc1)C(=O)N[C@@H](CC(=O)O)C(=O)N[C@@H](CC(=O)O)C(=O)N[C@@H](C)C(=O)N[C@@H](CC(=O)O)C(=O)N[C@@H](CO)C(=O)N[C@@H](CO)C(=O)N[C@@H](CC(=O)O)C(N)=O)C(C)C)C(C)C [compound 13] ({FITC-AEEA}-LLMSRVVPGQFDDADSSD-NH2),0.279 ± 0.041 µM
4,CC(=O)N[C@H](C(=O)N1CCC[C@H]1C(=O)NCC(=O)N[C@@H](CCC(N)=O)C(=O)N[C@@H](Cc1ccccc1)C(=O)N[C@@H](CC(=O)O)C(=O)N[C@@H](CC(=O)O)C(=O)N[C@@H](C)C(=O)N[C@@H](CC(=O)O)C(=O)N[C@@H](CCCCNC(=O)COCCOCCNC(=S)Nc1ccc2c(c1)C(=O)OC21c2ccc(O)cc2Oc2cc(O)ccc21)C(N)=O)C(C)C [compound 8] (Ac-VPGQFDDADK([AEEA-FITC])-NH2),0.208 ± 0.074 µM
5,CC(C)[C@H](NC(=O)[C@H](CC(=O)O)NC(=O)[C@H](C)NC(=O)[C@H](CC(=O)O)NC(=O)[C@H](CCC(=O)O)NC(=O)[C@H](Cc1ccccc1)NC(=O)[C@H](CCC(N)=O)NC(=O)CNC(=O)[C@H](C)NC(=O)[C@@H](NC(=O)[C@@H](NC(=O)[C@@H]1CCCN1C(=O)[C@@H](NC(=O)COCCOCCNC(=S)Nc1ccc2c(c1)C(=O)OC21c2ccc(O)cc2Oc2cc(O)ccc21)[C@@H](C)O)[C@@H](C)O)C(C)C)C(=O)N[C@@H](CC(=O)O)C(=O)N[C@@H](Cc1c[nH]cn1)C(N)=O [compound 15] ({FITC-AEEA}-TPTVAGQFEDADVDH-NH2),0.52 ± 0.04 µM
6,CSCC[C@H](NC(=O)[C@H](CC(C)C)NC(=O)[C@H](CC(C)C)NC(=O)COCCOCCNC(=S)Nc1ccc2c(c1)C(=O)OC21c2ccc(O)cc2Oc2cc(O)ccc21)C(=O)N[C@@H](CO)C(=O)N[C@@H](CCCNC(=N)N)C(=O)N[C@H](C(=O)N[C@H](C(=O)N1CCC[C@H]1C(=O)NCC(=O)N[C@@H](CCC(N)=O)C(=O)N[C@@H](Cc1ccccc1)C(=O)N[C@@H](CC(=O)O)C(=O)N[C@@H](CC(=O)O)C(=O)N[C@@H](C)C(=O)N[C@@H](CC(=O)O)C(N)=O)C(C)C)C(C)C [compound 12] ({FITC-AEEA}-LLMSRVVPGQFDDAD-NH2),0.192 ± 0.026 µM
7,CC(=O)N[C@@H](CO)C(=O)N[C@@H](CCCNC(=N)N)C(=O)N[C@H](C(=O)N[C@H](C(=O)N1CCC[C@H]1C(=O)NCC(=O)N[C@@H](CCC(N)=O)C(=O)N[C@@H](Cc1ccccc1)C(=O)N[C@@H](CC(=O)O)C(=O)N[C@@H](CC(=O)O)C(=O)N[C@@H](C)C(=O)N[C@@H](CC(=O)O)C(=O)N[C@@H](CCCCNC(=O)COCCOCCNC(=S)Nc1ccc2c(c1)C(=O)OC21c2ccc(O)cc2Oc2cc(O)ccc21)C(N)=O)C(C)C)C(C)C [compound 7] (Ac-SRVVPGQFDDADK([AEEA-FITC])-NH2),0.716 ± 0.036 µM
8,CC(=O)NCC(=O)N[C@@H](CCC(N)=O)C(=O)N[C@@H](Cc1ccccc1)C(=O)N[C@@H](CC(=O)O)C(=O)N[C@@H](CC(=O)O)C(=O)N[C@@H](C)C(=O)N[C@@H](CC(=O)O)C(=O)N[C@@H](CCCCNC(=O)COCCOCCNC(=S)Nc1ccc2c(c1)C(=O)OC21c2ccc(O)cc2Oc2cc(O)ccc21)C(N)=O [compound 9] (Ac-GQFDDADK([AEEA-FITC])-NH2),> 5 µM
9,CC(C)[C@H](NC(=O)[C@H](CCCNC(=N)N)NC(=O)[C@H](CO)NC(=O)COCCOCCNC(=S)Nc1ccc2c(c1)C(=O)OC21c2ccc(O)cc2Oc2cc(O)ccc21)C(=O)N[C@H](C(=O)N1CCC[C@H]1C(=O)NCC(=O)N[C@@H](CCC(N)=O)C(=O)N[C@@H](Cc1ccccc1)C(=O)N[C@@H](CC(=O)O)C(=O)N[C@@H](CC(=O)O)C(N)=O)C(C)C [compound 5] ({FITC-AEEA}-SRVVPGQFDD-NH2),> 5 µM
